From publication PMC7052193, “Nanobody-enabled monitoring of kappa opioid receptor states” (Nature Communications, 2020)
Several values for one entry are separate records, joined by “and”; a condition that tells them apart may be missing. Equal entries are not always repeated. Where two headings read alike, the source gives them in different places. Blank lines part the entries; values can stand above or below the molecule they belong to.

Key:
KOR = KOR (Homo sapiens, UniProt P41145); experiment: Competition binding with 3H-JDTic in the absence or presence of 5 µM Nb6 or Nb39
ETA [1] = type: cell-based, human; settings: ETA-KOR, Log [Drug]
ETA [2] = type: cell-based, human; settings: ETA-KOR
[3] = target: T1, human KOR containing C-terminal Renilla luciferase (RLuc8) (human, UniProt P41145); experiment: FRET or BRET; live HEK 293T cells co-transfected with receptor-RLuc and nanobody-mVenus (1:3); net BRET ratio without agonist (no drug, or with the antagonist JDTic); 20 mM HEPES, 1X HBSS, pH 7.4; settings: partners not purified
T1 construct: kappa opioid receptor, human, wild type; also called KOR-Rluc; kappa opioid receptor; source: HEK 293T, co-transfected, in live cells; not shown: RLuc8, C-terminal, kept

[4] = target: T1, human KOR containing C-terminal Renilla …; experiment: FRET or BRET; kinetic BRET in HEK 293T cells co-expressing KOR-Rluc and Nb6-mVenus or Nb39-mVenus; 10 µM Sal A, then 10 µM JDTic added at the indicated times; t1/2 from one phase exponential decay; settings: partners not purified

binding result [3]: no binding
B1: Nb6-mVenus with R102 mutated (VHH)
VHH: QVQLQESGGGLVQAGESLRLSCAASGTIFRLYDMGWYRRVSGNQRELVASITSGGSTKYGDSVKGRFTISRDNAKNTVYLQMSSLKPEDTAVYYCNAEYATGIWEELLDGWGQGTQVTVSS
notes: as the chain of m4 (PDB 6VI4) with R102 mutated; also called Nb6 R102 mutant; source: HEK 293T, co-transfected, in live cells; not shown: mVenus, C-terminal, kept

binding result [3]: no binding
B2: Nb6-mVenus with W106 mutated (VHH)
VHH: QVQLQESGGGLVQAGESLRLSCAASGTIFRLYDMGWYRRVSGNQRELVASITSGGSTKYGDSVKGRFTISRDNAKNTVYLQMSSLKPEDTAVYYCNAEYRTGIAEELLDGWGQGTQVTVSS
notes: as the chain of m4 (PDB 6VI4) with W106 mutated; also called Nb6 W106 mutant; source: HEK 293T, co-transfected, in live cells; not shown: mVenus, C-terminal, kept

t1/2 of the reversal of the KOR-Nb39 association by JDTic [4]: 107 ± 15 s
B3: Nb39-mVenus (VHH)
VHH: QVQLVESGGGLVRPGGSLRLSCVDSERTSYPMGWFRRAPGKEREFVASITWSGIDPTYADSVADRFTTSRDVANNTLYLQMNSLKHEDTAVYYCAARAPVGQSSSPYDYDYWGQGTQVTVSS
notes: nanobody chain of the cited KOR-MP1104-Nb39 structure PDB 6B73; A purified Nb39 from E. coli WK6 (no mVenus) was used at 5 µM in the radioligand assays; the functional row on it uses this id; also called positive allosteric nanobody; active-state associated nanobody; source: HEK 293T, co-transfected, in live cells; not shown: mVenus, C-terminal, kept

More lines, now with the values behind:

Molecule: CC[C@H](C)[C@H](NC(=O)[C@H](CCCNC(=N)N)NC(=O)[C@H](CCCNC(=N)N)NC(=O)[C@H](CC(C)C)NC(=O)[C@H](Cc1ccccc1)NC(=O)CNC(=O)CNC(=O)[C@@H](N)Cc1ccc(O)cc1)C(=O)N[C@@H](CCCNC(=N)N)C(=O)N1CCC[C@H]1C(=O)N[C@@H](CCCCN)C(=O)N[C@@H](CC(C)C)C(=O)N[C@@H](CCCCN)C(=O)O [Dynorphin A, 1-13, Dynorphin A (1–13)]
Ki (KOR): 2.43 ± 0.2 nM

Molecule: CC[C@H](C)[C@H](NC(=O)[C@H](CC(=O)O)NC(=O)[C@H](CC(C)C)NC(=O)[C@H](Cc1c[nH]cn1)NC(=O)[C@@H]1CSSC[C@H](N)C(=O)N[C@@H](CO)C(=O)N[C@H]2CSSC[C@H](NC(=O)[C@H](CCC(=O)O)NC(=O)[C@H](CCCCN)NC(=O)[C@H](CC(=O)O)NC(=O)[C@H](CCSC)NC(=O)[C@H](CC(C)C)NC(=O)[C@H](CO)NC(=O)[C@H](CO)NC2=O)C(=O)N[C@@H](C(C)C)C(=O)N[C@@H](Cc2ccc(O)cc2)C(=O)N[C@@H](Cc2ccccc2)C(=O)N1)C(=O)N[C@H](C(=O)N[C@@H](Cc1c[nH]c2ccccc12)C(=O)O)[C@@H](C)CC [Endothelin-1]
Net BRET G protein activation, source data Figure 5c (ETA [1]; M = -5.5): 8.126 and 14.2188 and 11.7402
Net BRET G protein activation, source data Figure 5c (ETA [1]; M = -6.5): 13.3731 and 8.584 and 11.2246
Net BRET G protein activation, source data Figure 5c (ETA [1]; M = -7.5): 27.9656 and 34.3494 and 31.9455
Net BRET G protein activation, source data Figure 5c (ETA [1]; M = -8.5): 53.981 and 48.3799 and 51.5065
Net BRET G protein activation, source data Figure 5c (ETA [1]; M = -9.5): 73.7875 and 86.5149 and 80.3002
Net BRET G protein activation, source data Figure 5c (ETA [1]; M = -10.5): 94.2005 and 91.2115 and 93.274
Net BRET G protein activation, source data Figure 5c (ETA [1]; M = -11.5): 104.258 and 97.1609 and 101.662
Net BRET G protein activation, source data Figure 5c (ETA [1]; M = -12.5): 100.567 and 115.131
Net BRET receptor and Nb6, source data Figure 5b (ETA [2]; Log [Endothelin-1,] M = -5): 4.499 and 7.7967 and 6.394
Net BRET receptor and Nb6, source data Figure 5b (ETA [2]; Log [Endothelin-1,] M = -6): 5.268 and 6.925 and 6.885
Net BRET receptor and Nb6, source data Figure 5b (ETA [2]; Log [Endothelin-1,] M = -7): 45.5139 and 37.9048 and 42.0353
Net BRET receptor and Nb6, source data Figure 5b (ETA [2]; Log [Endothelin-1,] M = -8): 94.8754 and 92.9034 and 94.0384
Net BRET receptor and Nb6, source data Figure 5b (ETA [2]; Log [Endothelin-1,] M = -9): 99.5856 and 100.414 and 100.568
Net BRET receptor and Nb6, source data Figure 5b (ETA [2]; Log [Endothelin-1,] M = -10): 98.7901 and 95.8099 and 98.252
Net BRET receptor and Nb6, source data Figure 5b (ETA [2]; Log [Endothelin-1,] M = -11): 101.512 and 91.9128 and 97.2504
